What all share (assay type): functional
Assay [1] concerns Rhizoctonia solani. The experiment in a line: microbe, parasite or virus in culture. Particulars: read-out: GI.
Description: Fungicidal activity against Rhizoctonia solani assessed as inhibition rate of circle mycelium growth at 500 ug/ml
For another assay, the system named is Ustilaginoidea. The assay is described as follows: microbe, parasite or virus in culture. Particulars: read-out: GI.
A further assay relates to Alternaria alternata. The assay is described as follows: microbe, parasite or virus in culture. To be noted: read-out: GI.
The subject of another assay is Phytophthora capsici. The assay is described as follows: microbe, parasite or virus in culture. To be noted: read-out: GI.
The next assay relates to Fusarium graminearum. The assay is described as follows: microbe, parasite or virus in culture. Particulars: read-out: GI.
A further assay has as its system Botrytis cinerea. The assay is described as follows: microbe, parasite or virus in culture. To be noted: read-out: GI.
Another assay relates to Sclerotinia sclerotiorum. The assay is described as follows: microbe, parasite or virus in culture. Particulars: read-out: GI.
The test system of assay [2] is Rhizoctonia solani. To be noted: at 100 µg/mL.
Description: Fungicidal activity against Rhizoctonia solani assessed as inhibition rate of circle mycelium growth at 100 ug/ml relative to control
In assay [3] the test system is Rhizoctonia solani. Particulars: at 200 µg/mL.
Description: Fungicidal activity against Rhizoctonia solani assessed as inhibition rate of circle mycelium growth at 200 ug/ml relative to control
In assay [4] the test system is Rhizoctonia solani. Particulars: at 400 µg/mL.
Description: Fungicidal activity against Rhizoctonia solani assessed as inhibition rate of circle mycelium growth at 400 ug/ml relative to control

Description for Alternaria alternata: Fungicidal activity against Alternaria alternata assessed as inhibition rate of circle mycelium growth at 500 ug/ml
Description for Botrytis cinerea: Fungicidal activity against Botryotinia fuckeliana assessed as inhibition rate of circle mycelium growth at 500 ug/ml
Description for Phytophthora capsici: Fungicidal activity against Phytophthora capsici assessed as inhibition rate of circle mycelium growth at 500 ug/ml
Description for Sclerotinia sclerotiorum: Fungicidal activity against Sclerotinia sclerotiorum assessed as inhibition rate of circle mycelium growth at 500 ug/ml
Description for Ustilaginoidea: Fungicidal activity against Ustilaginoidea oryzae assessed as inhibition rate of circle mycelium growth at 500 ug/ml

With `C/C(=N\Nc1nc2c(C)cccc2s1)c1ccc(C)cc1`, the inhibition of growth at 500 µg/mL in the assay with Rhizoctonia solani [1] turned out to be 30%; in the assay on Ustilaginoidea, 5%; with Alternaria alternata it was 0%; with Phytophthora capsici, 0%; in the assay with Fusarium graminearum, 0%; with Botrytis cinerea it was 0%. Besides, in the assay with Sclerotinia sclerotiorum, the inhibition of growth at 500 µg/mL was determined as 28.1%.

As to `Cc1cccc2sc(NN=C3CCCCC3)nc12`, the inhibition of growth at 500 µg/mL came to 0% in the assay with Rhizoctonia solani [1]; 0% with Ustilaginoidea; 47.8% with Alternaria alternata; 0% in the assay on Phytophthora capsici; 0% in the assay with Fusarium graminearum; 66.7% in the assay with Botrytis cinerea. Further, the inhibition of growth at 500 µg/mL with Sclerotinia sclerotiorum came to 43.8%.

As for `CC(C)=NNc1nc2c(C)cccc2s1`, the inhibition of growth at 500 µg/mL worked out at 0% in the assay with Rhizoctonia solani [1]; 20% with Ustilaginoidea; 47.8% in the assay on Alternaria alternata; 0% in the assay with Phytophthora capsici; 0% in the assay on Fusarium graminearum; 70.8% in the assay with Botrytis cinerea. Moreover, in the assay with Sclerotinia sclerotiorum, the inhibition of growth at 500 µg/mL was 59.4%.

`CCCC1COC(Cn2cncn2)(c2ccc(Cl)cc2Cl)O1` (stereo not drawn) [PROPICONAZOLE]: the Efficacy with Rhizoctonia solani [2] is recorded as 40%; in the assay on Rhizoctonia solani [3] it was 60%; with Rhizoctonia solani [4], 90%. Moreover, the inhibition of growth at 500 µg/mL came to 90% in the assay with Rhizoctonia solani [1]; 0% with Ustilaginoidea; 0% in the assay on Alternaria alternata; 0% in the assay on Phytophthora capsici; 0% in the assay on Fusarium graminearum; 0% in the assay on Botrytis cinerea. Further, in the assay with Sclerotinia sclerotiorum, the inhibition of growth at 500 µg/mL worked out at 87.5%.

For `C/C(=N\Nc1nc2c(C)cccc2s1)c1c(F)cccc1F`, the figures for the Efficacy in the assay on Rhizoctonia solani [2], with Rhizoctonia solani [3] and in the assay with Rhizoctonia solani [4] were 35%, 45% and 65%, respectively. In addition, the inhibition of growth at 500 µg/mL in the assay with Rhizoctonia solani [1] amounted to 95%; in the assay with Ustilaginoidea, 0%; in the assay with Alternaria alternata it was 0%; with Phytophthora capsici, 0%; in the assay with Fusarium graminearum, 0%; in the assay on Botrytis cinerea, 0%. Further, the inhibition of growth at 500 µg/mL in the assay with Sclerotinia sclerotiorum amounted to 0%.

On to `Cc1cccc2sc(NN=C3CCCC3)nc12`, for which the inhibition of growth at 500 µg/mL in the assay on Rhizoctonia solani [1] was determined as 85%; in the assay with Ustilaginoidea, 25%; in the assay with Alternaria alternata it was 52.2%; with Phytophthora capsici, 0%; in the assay with Fusarium graminearum, 36.8%; in the assay on Botrytis cinerea it was 70.8%. Moreover, the inhibition of growth at 500 µg/mL in the assay on Sclerotinia sclerotiorum worked out at 62.5%.

On to `C/C(=N\Nc1nc2c(C)cccc2s1)c1ccc([N+](=O)[O-])cc1`, for which the inhibition of growth at 500 µg/mL with Rhizoctonia solani [1] came to 90%; in the assay with Ustilaginoidea, 0%; in the assay with Alternaria alternata, 0%; with Phytophthora capsici, 0%; with Fusarium graminearum it was 0%; in the assay on Botrytis cinerea it was 0%. For the same compound, the inhibition of growth at 500 µg/mL in the assay on Sclerotinia sclerotiorum is 0%.

Regarding `Cc1cccc2sc(NN)nc12`, the inhibition of growth at 500 µg/mL in the assay on Rhizoctonia solani [1] came out at 0%; in the assay on Ustilaginoidea, 0%; in the assay with Alternaria alternata it was 13.6%; in the assay with Phytophthora capsici it was 0%; with Fusarium graminearum, 0%; in the assay with Botrytis cinerea it was 22.3%. Besides, the inhibition of growth at 500 µg/mL in the assay on Sclerotinia sclerotiorum was 16.2%.

Turning to `Cc1cccc2sc3nncn3c12` [TRICYCLAZOLE], the Efficacy came out at 22% in the assay with Rhizoctonia solani [2], 33% in the assay with Rhizoctonia solani [3] and 57% in the assay with Rhizoctonia solani [4]. The inhibition of growth at 500 µg/mL turned out to be 85% in the assay with Rhizoctonia solani [1]; 0% in the assay on Ustilaginoidea; 0% with Alternaria alternata; 27.8% in the assay with Phytophthora capsici; 13.6% in the assay on Fusarium graminearum; 52.8% in the assay with Botrytis cinerea. In addition, the inhibition of growth at 500 µg/mL in the assay with Sclerotinia sclerotiorum came out at 72.7%.

As for `C/C(=N\Nc1nc2c(C)cccc2s1)c1ccc(F)cc1`, the inhibition of growth at 500 µg/mL in the assay with Rhizoctonia solani [1], with Ustilaginoidea, in the assay with Alternaria alternata, in the assay on Phytophthora capsici, in the assay on Fusarium graminearum and with Botrytis cinerea was 0% in each case. In addition, in the assay with Sclerotinia sclerotiorum, the inhibition of growth at 500 µg/mL came to 28.1%.

For `C/C(=N\Nc1nc2c(C)cccc2s1)c1ccc(Br)cc1`, the inhibition of growth at 500 µg/mL in the assay on Rhizoctonia solani [1] was 50%; in the assay on Ustilaginoidea, 0%; in the assay with Alternaria alternata it was 0%; in the assay with Phytophthora capsici, 0%; in the assay with Fusarium graminearum, 0%; in the assay with Botrytis cinerea, 0%. Moreover, the inhibition of growth at 500 µg/mL with Sclerotinia sclerotiorum is 46.9%.

For the compound `CC/C(C)=N/Nc1nc2c(C)cccc2s1`, the inhibition of growth at 500 µg/mL stood at 90% in the assay with Rhizoctonia solani [1]; 40% in the assay with Ustilaginoidea; 47.8% in the assay with Alternaria alternata; 0% in the assay with Phytophthora capsici; 0% in the assay on Fusarium graminearum; 70.8% in the assay with Botrytis cinerea. The inhibition of growth at 500 µg/mL in the assay on Sclerotinia sclerotiorum is 87.5%.

As for `C/C(=N\Nc1nc2c(C)cccc2s1)c1ccc(Cl)cc1`, the inhibition of growth at 500 µg/mL with Rhizoctonia solani [1], in the assay on Ustilaginoidea, in the assay on Alternaria alternata, with Phytophthora capsici, in the assay with Fusarium graminearum and in the assay on Botrytis cinerea was 0% each time. Besides, the inhibition of growth at 500 µg/mL in the assay with Sclerotinia sclerotiorum turned out to be 9.4%.

On to `C/C(=N\Nc1nc2c(C)cccc2s1)C(C)C`, for which the inhibition of growth at 500 µg/mL in the assay on Rhizoctonia solani [1] was determined as 60%; in the assay with Ustilaginoidea, 5%; in the assay on Alternaria alternata it was 56.5%; in the assay on Phytophthora capsici, 0%; in the assay on Fusarium graminearum it was 0%; with Botrytis cinerea it was 70.8%. Further, in the assay with Sclerotinia sclerotiorum, the inhibition of growth at 500 µg/mL was determined as 90.6%.

Turning to `C/C(=N\Nc1nc2c(C)cccc2s1)c1cccc(Cl)c1`, the inhibition of growth at 500 µg/mL with Rhizoctonia solani [1], with Ustilaginoidea, with Alternaria alternata, with Phytophthora capsici, in the assay with Fusarium graminearum and in the assay with Botrytis cinerea was 0% throughout. In the assay on Sclerotinia sclerotiorum, the inhibition of growth at 500 µg/mL was found to be 43.8%.

For the compound `C/C(=N\Nc1nc2c(C)cccc2s1)c1ccccc1`, the inhibition of growth at 500 µg/mL was 0% in the assay on Rhizoctonia solani [1]; 0% in the assay on Ustilaginoidea; 21.7% in the assay on Alternaria alternata; 0% with Phytophthora capsici; 0% with Fusarium graminearum; 0% in the assay with Botrytis cinerea. The inhibition of growth at 500 µg/mL in the assay with Sclerotinia sclerotiorum amounted to 31.3%.

Take `COc1ccccc1/C(C)=N/Nc1nc2c(C)cccc2s1`: the inhibition of growth at 500 µg/mL worked out at 60% in the assay on Rhizoctonia solani [1]; 0% in the assay with Ustilaginoidea; 0% in the assay with Alternaria alternata; 0% in the assay on Phytophthora capsici; 0% in the assay with Fusarium graminearum; 0% in the assay with Botrytis cinerea. For the same compound, the inhibition of growth at 500 µg/mL with Sclerotinia sclerotiorum came out at 3.1%.

With `COc1ccc(/C(C)=N/Nc2nc3c(C)cccc3s2)cc1`, the Efficacy in the assay with Rhizoctonia solani [2] amounted to 10%; in the assay with Rhizoctonia solani [3], 20%; in the assay with Rhizoctonia solani [4] it was 50%. Besides, the inhibition of growth at 500 µg/mL is 95% with Rhizoctonia solani [1]; 0% with Ustilaginoidea; 30.4% in the assay on Alternaria alternata; 0% with Phytophthora capsici; 0% with Fusarium graminearum; 37.5% in the assay with Botrytis cinerea. The inhibition of growth at 500 µg/mL in the assay on Sclerotinia sclerotiorum is 50%.

The record behind these values is ChEMBL document CHEMBL3044608, “Synthesis and fungicidal activity of hydrazones containing 4-methylbenzo[d]thiazole moiety” (2012).
